Test results reported in the supplement of paper PMC12463676, “Small-molecule dissolution of stress granules by redox modulation benefits ALS models” (Nature Chemical Biology, 2025).

Key:
lipoamide = compound: NC(=O)CCCCC1CCSS1 [lipoamide]; assay: thermal stability z-score vs DMSO; higher = more thermally stabilized by treatment; details: HeLa, lipoamide concentration 100 µM
Method: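 Cellular thermal proteome profiling in HeLa cells. Cells were treated with 100 µM lipoamide for 1 h, with or without 1 mM arsenate for a further 1 h, then heated to ten temperatures (37-66.3 °C), and soluble protein was quantified by TMT mass spectrometry relative to 0.1% DMSO controls. The thermal stability score (sum of log2 fold changes minus the abundance score) was transformed to a z-score; mean of n = 3 experiments.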

potassium arsenate = compound: O=[As]([O-])(O)O.[K+] [potassium arsenate]; assay: as above; details: HeLa; arsenate concentration 1 mM
Method: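 Cellular thermal proteome profiling in HeLa cells treated with 1 mM arsenate for 1 h (DMSO pretreatment), heated to ten temperatures (37-66.3 °C). Soluble protein was quantified by TMT mass spectrometry relative to DMSO controls; the thermal stability score was transformed to a z-score; mean of n = 3 experiments.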

[1] = arsenate co-treatment: 1 mM arsenate 1 h
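Also: each temperature applied for 3 min, abundance score taken as mean log2 fold change at the two lowest temperatures, z-score obtained by mean subtraction and division by SD.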

UniProt Q8NHG8, sequence (Q8NHG8 whole entry): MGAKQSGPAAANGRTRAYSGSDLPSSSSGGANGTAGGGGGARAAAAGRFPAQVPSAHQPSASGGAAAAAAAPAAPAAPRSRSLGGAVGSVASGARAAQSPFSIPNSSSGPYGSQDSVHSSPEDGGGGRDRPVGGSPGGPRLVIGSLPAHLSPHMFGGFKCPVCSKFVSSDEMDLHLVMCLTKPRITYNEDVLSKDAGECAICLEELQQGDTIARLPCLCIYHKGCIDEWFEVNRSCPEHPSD
UniProt Q9H8U3, sequence (Q9H8U3 whole entry): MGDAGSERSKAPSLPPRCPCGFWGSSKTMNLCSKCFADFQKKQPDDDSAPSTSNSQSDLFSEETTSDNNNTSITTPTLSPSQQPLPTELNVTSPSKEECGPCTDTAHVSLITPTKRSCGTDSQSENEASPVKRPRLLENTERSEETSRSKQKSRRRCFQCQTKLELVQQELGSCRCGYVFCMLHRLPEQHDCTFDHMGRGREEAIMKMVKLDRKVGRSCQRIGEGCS
UniProt O75844, sequence (O75844 whole entry): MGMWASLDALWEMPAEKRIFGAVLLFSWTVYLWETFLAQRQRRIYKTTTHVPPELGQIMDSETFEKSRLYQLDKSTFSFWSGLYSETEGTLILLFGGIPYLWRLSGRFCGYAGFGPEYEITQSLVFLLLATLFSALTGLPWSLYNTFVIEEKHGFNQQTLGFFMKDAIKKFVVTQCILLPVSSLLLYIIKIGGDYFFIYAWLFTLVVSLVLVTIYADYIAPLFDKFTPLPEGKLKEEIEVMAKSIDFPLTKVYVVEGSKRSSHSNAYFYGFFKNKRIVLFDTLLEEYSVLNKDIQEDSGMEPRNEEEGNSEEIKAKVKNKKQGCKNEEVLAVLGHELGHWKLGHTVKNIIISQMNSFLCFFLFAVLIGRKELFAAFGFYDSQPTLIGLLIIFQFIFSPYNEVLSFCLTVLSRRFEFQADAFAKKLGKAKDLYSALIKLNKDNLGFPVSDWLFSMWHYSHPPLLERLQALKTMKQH
UniProt Q8TF68, sequence (Q8TF68 whole entry): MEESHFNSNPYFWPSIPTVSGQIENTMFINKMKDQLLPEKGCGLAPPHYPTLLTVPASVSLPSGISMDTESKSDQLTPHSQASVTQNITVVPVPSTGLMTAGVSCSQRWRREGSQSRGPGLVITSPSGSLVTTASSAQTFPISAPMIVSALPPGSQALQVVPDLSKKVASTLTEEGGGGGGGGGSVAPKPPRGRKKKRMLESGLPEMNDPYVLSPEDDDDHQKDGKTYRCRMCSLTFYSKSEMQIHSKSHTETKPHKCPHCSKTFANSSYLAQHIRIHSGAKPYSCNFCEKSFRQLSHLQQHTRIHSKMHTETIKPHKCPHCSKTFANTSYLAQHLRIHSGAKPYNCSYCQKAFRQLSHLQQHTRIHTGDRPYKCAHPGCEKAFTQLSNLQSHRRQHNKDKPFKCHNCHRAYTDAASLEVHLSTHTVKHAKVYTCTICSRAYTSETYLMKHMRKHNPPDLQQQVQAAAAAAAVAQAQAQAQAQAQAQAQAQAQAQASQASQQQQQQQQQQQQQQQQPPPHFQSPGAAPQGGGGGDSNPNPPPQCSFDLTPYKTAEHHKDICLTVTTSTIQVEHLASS
UniProt Q5TAX3, sequence (Q5TAX3 whole entry): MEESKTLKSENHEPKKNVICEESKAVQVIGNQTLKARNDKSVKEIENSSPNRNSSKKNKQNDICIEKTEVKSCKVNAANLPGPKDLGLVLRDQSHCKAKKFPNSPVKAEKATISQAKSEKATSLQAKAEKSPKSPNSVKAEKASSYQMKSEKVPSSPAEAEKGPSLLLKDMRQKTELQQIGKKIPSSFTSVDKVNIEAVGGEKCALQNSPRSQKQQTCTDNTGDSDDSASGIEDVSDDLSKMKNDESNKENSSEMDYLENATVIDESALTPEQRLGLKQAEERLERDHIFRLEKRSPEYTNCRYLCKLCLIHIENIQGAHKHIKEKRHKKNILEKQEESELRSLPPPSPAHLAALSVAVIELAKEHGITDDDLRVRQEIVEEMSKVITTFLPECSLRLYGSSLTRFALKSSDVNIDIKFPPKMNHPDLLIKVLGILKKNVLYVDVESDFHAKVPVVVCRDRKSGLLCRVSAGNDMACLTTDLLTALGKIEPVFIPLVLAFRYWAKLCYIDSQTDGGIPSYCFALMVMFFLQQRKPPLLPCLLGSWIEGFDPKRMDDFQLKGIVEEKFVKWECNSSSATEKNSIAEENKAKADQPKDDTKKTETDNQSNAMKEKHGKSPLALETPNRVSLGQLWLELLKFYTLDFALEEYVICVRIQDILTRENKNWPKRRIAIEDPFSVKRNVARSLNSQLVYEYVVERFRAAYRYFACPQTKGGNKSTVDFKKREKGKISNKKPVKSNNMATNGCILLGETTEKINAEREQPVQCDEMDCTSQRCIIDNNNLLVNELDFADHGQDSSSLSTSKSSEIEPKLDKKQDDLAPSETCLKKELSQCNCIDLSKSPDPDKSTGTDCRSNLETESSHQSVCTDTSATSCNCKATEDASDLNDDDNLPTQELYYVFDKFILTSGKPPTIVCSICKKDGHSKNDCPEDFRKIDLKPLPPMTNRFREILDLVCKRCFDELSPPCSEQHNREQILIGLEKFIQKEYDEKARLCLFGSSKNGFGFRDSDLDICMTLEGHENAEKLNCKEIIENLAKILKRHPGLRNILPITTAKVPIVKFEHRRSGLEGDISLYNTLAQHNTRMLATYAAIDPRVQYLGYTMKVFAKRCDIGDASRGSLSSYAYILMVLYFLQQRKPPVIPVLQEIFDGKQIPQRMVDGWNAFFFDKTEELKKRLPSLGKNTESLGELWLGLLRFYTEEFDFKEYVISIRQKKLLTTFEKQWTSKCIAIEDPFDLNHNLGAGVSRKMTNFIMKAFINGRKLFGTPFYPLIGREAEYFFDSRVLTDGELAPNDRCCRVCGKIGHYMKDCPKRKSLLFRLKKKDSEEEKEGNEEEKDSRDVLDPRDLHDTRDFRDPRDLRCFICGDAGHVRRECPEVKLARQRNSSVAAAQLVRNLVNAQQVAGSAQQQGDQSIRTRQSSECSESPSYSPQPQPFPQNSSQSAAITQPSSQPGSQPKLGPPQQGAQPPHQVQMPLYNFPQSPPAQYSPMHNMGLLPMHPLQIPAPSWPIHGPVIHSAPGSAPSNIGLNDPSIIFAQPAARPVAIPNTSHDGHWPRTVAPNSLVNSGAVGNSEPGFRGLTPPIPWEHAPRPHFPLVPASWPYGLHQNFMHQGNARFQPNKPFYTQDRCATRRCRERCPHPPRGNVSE
UniProt O43264, sequence (O43264 whole entry): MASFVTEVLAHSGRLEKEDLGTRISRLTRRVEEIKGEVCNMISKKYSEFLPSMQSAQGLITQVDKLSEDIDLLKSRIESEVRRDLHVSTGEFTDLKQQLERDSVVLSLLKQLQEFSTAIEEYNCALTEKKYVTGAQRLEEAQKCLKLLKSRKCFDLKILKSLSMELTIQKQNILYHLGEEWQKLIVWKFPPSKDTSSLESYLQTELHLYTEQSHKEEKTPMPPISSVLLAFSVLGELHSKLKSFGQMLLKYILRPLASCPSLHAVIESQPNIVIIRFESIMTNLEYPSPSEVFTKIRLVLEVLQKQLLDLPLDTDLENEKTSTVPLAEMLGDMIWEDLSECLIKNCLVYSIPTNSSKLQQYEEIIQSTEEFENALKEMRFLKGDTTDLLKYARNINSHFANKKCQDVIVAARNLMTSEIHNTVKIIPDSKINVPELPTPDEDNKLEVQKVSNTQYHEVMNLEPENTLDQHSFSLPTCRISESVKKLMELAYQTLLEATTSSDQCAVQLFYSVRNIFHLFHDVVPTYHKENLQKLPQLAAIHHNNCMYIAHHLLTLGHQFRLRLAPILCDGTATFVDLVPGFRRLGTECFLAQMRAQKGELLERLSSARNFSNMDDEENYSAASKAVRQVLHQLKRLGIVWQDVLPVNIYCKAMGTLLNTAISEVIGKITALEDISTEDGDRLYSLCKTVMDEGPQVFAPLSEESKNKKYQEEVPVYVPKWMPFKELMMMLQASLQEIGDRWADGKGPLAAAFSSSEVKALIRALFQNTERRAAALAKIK
UniProt Q86WB0, sequence (Q86WB0 whole entry): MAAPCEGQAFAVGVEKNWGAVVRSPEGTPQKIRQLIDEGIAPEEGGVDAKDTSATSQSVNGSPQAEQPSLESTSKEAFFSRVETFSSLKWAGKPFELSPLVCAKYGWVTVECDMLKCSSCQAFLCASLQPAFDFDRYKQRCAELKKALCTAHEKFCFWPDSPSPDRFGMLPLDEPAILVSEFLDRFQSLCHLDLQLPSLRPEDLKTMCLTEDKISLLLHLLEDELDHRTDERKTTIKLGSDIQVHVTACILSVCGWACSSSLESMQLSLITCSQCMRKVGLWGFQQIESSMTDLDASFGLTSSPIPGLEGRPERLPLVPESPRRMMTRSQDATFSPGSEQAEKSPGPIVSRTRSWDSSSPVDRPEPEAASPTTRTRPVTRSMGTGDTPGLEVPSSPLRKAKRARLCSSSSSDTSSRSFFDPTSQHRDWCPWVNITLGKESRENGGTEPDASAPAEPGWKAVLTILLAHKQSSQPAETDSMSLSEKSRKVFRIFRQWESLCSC
UniProt Q8TBF4, sequence (Q8TBF4 whole entry): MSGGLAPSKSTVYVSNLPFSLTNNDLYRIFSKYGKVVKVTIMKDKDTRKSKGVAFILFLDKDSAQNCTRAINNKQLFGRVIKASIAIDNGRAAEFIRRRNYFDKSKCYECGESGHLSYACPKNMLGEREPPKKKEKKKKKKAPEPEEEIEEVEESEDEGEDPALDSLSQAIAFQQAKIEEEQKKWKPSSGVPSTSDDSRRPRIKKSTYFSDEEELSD
UniProt Q6FIF0, sequence (Q6FIF0 whole entry): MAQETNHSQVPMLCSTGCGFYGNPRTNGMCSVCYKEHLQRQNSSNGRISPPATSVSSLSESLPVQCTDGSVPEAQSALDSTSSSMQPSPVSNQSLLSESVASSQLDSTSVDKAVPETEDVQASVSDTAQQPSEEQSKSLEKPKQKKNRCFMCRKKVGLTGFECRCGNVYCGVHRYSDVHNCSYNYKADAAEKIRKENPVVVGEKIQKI
UniProt Q9Y5V0, sequence (Q9Y5V0 whole entry): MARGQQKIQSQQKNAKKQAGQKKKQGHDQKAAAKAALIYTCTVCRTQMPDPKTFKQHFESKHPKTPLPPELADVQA

Target | thermal stability z-score (lipoamide; [1]) | thermal stability z-score (lipoamide; arsenate co-treatment: none) | thermal stability z-score (potassium arsenate)
ZC3HAV1 (UniProt Q7Z2W4) | -0.627 | 0.183 | 0.156
ZC3HAV1L (UniProt Q96H79) | 0.323 | -0.218 | 0.0902
ZC3HC1 (UniProt Q86WB0) | -0.377 | 0.164 | -0.364
ZCCHC6 (UniProt Q5VYS8) | -0.043 | -0.0119 | -0.0705
ZCCHC8 (UniProt Q6NZY4) | 0.464 | 0.344 | -0.318
ZCCHC11 (UniProt Q5TAX3) | -0.38 | -0.287 | -0.424
ZCRB1 (UniProt Q8TBF4) | 0.506 | 0.194 | 0.155
ZDHHC5 (UniProt Q9C0B5) | -0.762 | 0.0706 | -0.438
ZDHHC6 (UniProt Q9H6R6) | 0.211 | -0.0578 | -0.412
ZDHHC13 (UniProt Q8IUH4) | 0.0485 | -0.0918 | 0.144
ZDHHC17 (UniProt Q8IUH5) | 0.571 | 1.07 | 0.191
ZDHHC20 (UniProt Q5W0Z9) | 0.527 | 0.247 | 0.242
ZFAND1 (UniProt Q8TCF1) | 0.233 | 0.29 | -0.247
ZFAND3 (UniProt Q9H8U3) | 0.918 | 0.518 | -1.25
ZFAND5 (UniProt O76080) | 1.13 | 0.84 | 0.118
ZFAND6 (UniProt Q6FIF0) | 0.56 | 0.219 | -0.0508
ZFC3H1 (UniProt O60293) | 0.164 | -0.0359 | -0.434
ZFP36L2 (UniProt P47974) | -0.198 | 0.12 | -0.0646
ZFP91 (UniProt Q96JP5) | -0.301 | 0.00195 | -0.352
ZFPL1 (UniProt O95159) | -0.552 | -1.06 | -1.02
ZFR (UniProt Q96KR1) | 0.561 | 0.0288 | -0.37
ZFYVE9 (UniProt O95405) | -0.0978 | -0.0701 | -0.021
ZFYVE16 (UniProt Q7Z3T8) | -0.45 | 0.222 | -0.676
ZFYVE19 (UniProt Q96K21) | -0.473 | -0.599 | -3.34

Target | thermal stability z-score (lipoamide; [1]) | thermal stability z-score (lipoamide; arsenate co-treatment: none) | thermal stability z-score (potassium arsenate)
ZFYVE27 (UniProt Q5T4F4) | -0.0642 | -0.19 | 0.0943
ZGPAT (UniProt Q8N5A5) | -0.303 | -0.13 | -0.307
ZHX1 (UniProt Q9UKY1) | 0.0297 | 0.122 | -0.0668
ZHX3 (UniProt Q9H4I2) | -0.187 | -0.116 | -0.227
ZKSCAN1 (UniProt P17029) | -0.0617 | 0.0599 | 0.128
ZMAT2 (UniProt Q96NC0) | -0.00196 | -0.398 | -1.13
ZMIZ2 (UniProt Q8NF64) | -0.177 | -0.321 | -0.482
ZMPSTE24 (UniProt O75844) | 0.105 | -0.234 | 0.325
ZMYM1 (UniProt Q5SVZ6) | 0.0919 | 0.0471 | -0.798
ZMYM2 (UniProt Q9UBW7) | -0.105 | -0.0436 | -0.802
ZMYM3 (UniProt Q14202) | 0.69 | 0.308 | -1.2
ZMYM4 (UniProt Q5VZL5) | -0.347 | 0.0509 | -0.646
ZNF24 (UniProt P17028) | 0.0764 | -0.217 | -0.114
ZNF143 (UniProt P52747) | -0.135 | -0.0231 | 0.0928
ZNF148 (UniProt Q9UQR1) | 0.37 | 0.389 | 0.415
ZNF207 (UniProt O43670) | 0.132 | -0.22 | 0.167
ZNF217 (UniProt O75362) | -0.058 | 0.343 | -0.589
ZNF277 (UniProt Q9NRM2) | 0.365 | 0.166 | -0.515
ZNF281 (UniProt Q9Y2X9) | -0.165 | -0.214 | 0.133
ZNF326 (UniProt Q5BKZ1) | -0.0719 | 0.0989 | 0.0996
ZNF330 (UniProt Q9Y3S2) | -0.367 | -0.417 | -0.558
ZNF346 (UniProt Q9UL40) | -0.17 | 0.0809 | 0.04
ZNF384 (UniProt Q8TF68) | -0.017 | 0.00673 | -0.241
ZNF428 (UniProt Q96B54) | 1.64 | 2.65 | 1.85

Target | thermal stability z-score (lipoamide; [1]) | thermal stability z-score (lipoamide; arsenate co-treatment: none) | thermal stability z-score (potassium arsenate)
ZNF451 (UniProt Q9Y4E5) | 0.0272 | 0.0565 | 0.171
ZNF579 (UniProt Q8NAF0) | -0.34 | -0.434 | 0.155
ZNF593 (UniProt O00488) | 4.3 | 2.19 | -6.67
ZNF598 (UniProt Q86UK7) | 0.0109 | -0.407 | -0.82
ZNF609 (UniProt O15014) | 0.0184 | -0.0967 | -0.0848
ZNF622 (UniProt Q969S3) | -0.153 | -0.393 | 1.39
ZNF629 (UniProt Q9UEG4) | 0.162 | -0.369 | -0.114
ZNF638 (UniProt Q14966) | 0.83 | 0.27 | -0.032
ZNF668 (UniProt Q96K58) | 0.0589 | -0.155 | -0.073
ZNF703 (UniProt Q9H7S9) | 0.173 | 0.148 | 0.019
ZNF706 (UniProt Q9Y5V0) | 1.04 | 0.371 | 0.0846
ZNF787 (UniProt Q6DD87) | 0.853 | 1.17 | 0.223
ZNF830 (UniProt Q96NB3) | 1.38 | 0.482 | -0.642
ZNFX1 (UniProt Q9P2E3) | 0.113 | 1.85 | 2.01
ZNHIT2 (UniProt Q9UHR6) | -0.047 | 0.147 | -0.28
ZNHIT6 (UniProt Q9NWK9) | 1.08 | 0.924 | 0.0739
ZNRF2 (UniProt Q8NHG8) | -0.729 | -0.885 | -2.6
ZPR1 (UniProt O75312) | 0.753 | -0.187 | -1.09
ZRANB2 (UniProt O95218) | -0.755 | -0.097 | -0.286
ZSWIM8 (UniProt A7E2V4) | 0.028 | 0.0796 | -0.0789
ZW10 (UniProt O43264) | -0.0261 | -0.137 | 0.692
ZWILCH (UniProt Q9H900) | -0.3 | -0.512 | -0.55
ZWINT (UniProt O95229) | 0.0176 | -0.0608 | 0.0525
